What follows are compounds tested against T1, androgen receptor (Homo sapiens, UniProt P10275) (assay: AR Antagonist Cell Assay (MMTV-luciferase reporter, DHT-induced)). Details: MDA-MB453-MMTV clone 54-19 cells, 100 pM DHT, 17 hr.
T1 sequence (P10275 1-920 Q868H): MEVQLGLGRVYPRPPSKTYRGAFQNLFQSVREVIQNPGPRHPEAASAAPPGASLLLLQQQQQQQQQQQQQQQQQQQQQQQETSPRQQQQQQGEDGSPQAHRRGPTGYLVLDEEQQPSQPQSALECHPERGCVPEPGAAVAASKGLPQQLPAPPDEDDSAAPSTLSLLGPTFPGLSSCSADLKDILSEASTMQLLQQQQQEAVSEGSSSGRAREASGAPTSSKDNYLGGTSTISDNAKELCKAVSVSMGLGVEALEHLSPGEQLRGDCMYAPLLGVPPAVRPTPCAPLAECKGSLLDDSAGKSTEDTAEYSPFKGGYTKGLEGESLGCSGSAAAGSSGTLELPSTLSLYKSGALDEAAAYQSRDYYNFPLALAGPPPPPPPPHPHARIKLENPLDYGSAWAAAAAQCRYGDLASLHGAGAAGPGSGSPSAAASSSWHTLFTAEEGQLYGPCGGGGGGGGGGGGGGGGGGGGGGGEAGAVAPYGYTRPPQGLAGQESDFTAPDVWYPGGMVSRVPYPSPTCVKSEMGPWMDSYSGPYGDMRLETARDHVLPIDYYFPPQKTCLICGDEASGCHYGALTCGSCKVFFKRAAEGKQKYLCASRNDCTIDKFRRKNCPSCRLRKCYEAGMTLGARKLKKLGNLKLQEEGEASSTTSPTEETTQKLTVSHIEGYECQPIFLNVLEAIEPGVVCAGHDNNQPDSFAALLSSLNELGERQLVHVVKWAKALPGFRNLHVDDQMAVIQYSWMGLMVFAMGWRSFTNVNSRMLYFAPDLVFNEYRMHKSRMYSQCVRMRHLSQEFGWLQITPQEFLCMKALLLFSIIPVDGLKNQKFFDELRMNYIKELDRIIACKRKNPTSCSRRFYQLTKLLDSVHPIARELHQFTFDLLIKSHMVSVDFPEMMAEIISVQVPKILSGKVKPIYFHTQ
Assay type: cell-based
In short: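 Stably transfected MDA-MB453 cells carrying an ARE-containing MMTV promoter–firefly luciferase reporter, pretreated 30 min with compound at 10 uM or 1 uM in 1% charcoal-treated serum medium. Then stimulated with 100 pM DHT for 17 hr at 37° C. and luminescence read; expressed as % inhibition of DHT-induced signal.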

SMILES | IC50
O=c1cc(C(F)(F)F)c2cc(S(=O)(=O)Nc3ccc(F)cc3F)ccc2[nH]1 [Example 94, 2-Oxo-4-trifluoromethyl-1,2-dihydroquinoline-6-sulfonic acid(2,4-difluorophenyl)amide] | > 10 µM
O=c1cc(C(F)(F)F)c2cc(S(=O)(=O)NCCc3ccccc3)ccc2[nH]1 [Example 128, 2-Oxo-4-trifluoromethyl-1,2-dihydroquinoline-6-sulfonic acidphenethylamide] | 2.65 µM
Cc1cccc(C)c1NS(=O)(=O)c1ccc2c(c1)c(C(F)(F)F)cc(=O)n2C [Example 18, 1-Methyl-2-oxo-4-trifluoromethyl-1,2-dihydroquinoline-6-sulfonicacid (2,6-dimethylphenyl)amide] | > 10 µM
O=c1cc(C(F)(F)F)c2cc(S(=O)(=O)NC3CCc4ccccc43)ccc2[nH]1 (stereo not drawn) [Example 130, 2-Oxo-4-trifluoromethyl-1,2-dihydroquinoline-6-sulfonic acidindan-1-ylamide] | 1.03 µM
O=c1cc(C(F)(F)F)c2cc(S(=O)(=O)NCCSCc3c(F)cccc3Cl)ccc2[nH]1 [Example 154, 2-Oxo-4-trifluoromethyl-1,2-dihydroquinoline-6-sulfonic acid[2-(2-chloro-6-fluorobenzylsulfanyl)ethyl]amide] | 2.18 µM
CSc1ccccc1CNS(=O)(=O)c1ccc2oc(=O)cc(C(F)(F)F)c2c1 [Example 66, 2-Oxo-4-trifluoromethyl-2H-chromene-6-sulfonic acid 2-methylsulfanylbenzylamide] | > 10 µM
O=c1cc(C(F)(F)F)c2cc(S(=O)(=O)NCc3cc(Cl)ccc3F)ccc2[nH]1 [Example 146, 2-Oxo-4-trifluoromethyl-1,2-dihydroquinoline-6-sulfonic acid5-chloro-2-fluorobenzylamide] | 6.54 µM
CSc1cccc(NS(=O)(=O)c2ccc3[nH]c(=O)cc(C(F)(F)F)c3c2)c1 [Example 101, 2-Oxo-4-trifluoromethyl-1,2-dihydroquinoline-6-sulfonic acid(3-methylsulfanylphenyl)amide] | 0.36 µM
Cn1c(=O)cc(C(F)(F)F)c2cc(S(=O)(=O)Nc3cccc4c3CCC4)ccc21 [Example 23, 1-Methyl-2-oxo-4-trifluoromethyl-1,2-dihydroquinoline-6-sulfonicacid indan-4-ylamide] | > 10 µM
COc1ccccc1CCNS(=O)(=O)c1ccc2c(c1)c(C(F)(F)F)cc(=O)n2C [Example 58, 1-Methyl-2-oxo-4-trifluoromethyl-1,2-dihydroquinoline-6-sulfonicacid [2-(2-methoxyphenyl)ethyl]amide] | 5.4 µM
CSc1n[nH]c(NS(=O)(=O)c2ccc3c(c2)c(C(F)(F)F)cc(=O)n3C)c1C#N [Example 35, 1-Methyl-2-oxo-4-trifluoromethyl-1,2-dihydroquinoline-6-sulfonicacid (4-cyano-5-methylsulfanyl-2H-pyrazol-3-yl)amide] | > 10 µM
Cn1c(=O)cc(C(F)(F)F)c2cc(S(=O)(=O)Nc3cc(C(C)(C)C)cc(C(C)(C)C)c3)ccc21 [Example 45, 1-Methyl-2-oxo-4-trifluoromethyl-1,2-dihydroquinoline-6-sulfonicacid (3,5-di-tert-butylphenyl)amide] | > 10 µM
Cn1c(=O)cc(C(F)(F)F)c2cc(S(=O)(=O)NCc3cc(Cl)ccc3F)ccc21 [Example 59, 1-Methyl-2-oxo-4-trifluoromethyl-1,2-dihydroquinoline-6-sulfonicacid 5-chloro-2-fluorobenzylamide] | > 10 µM
O=c1cc(C(F)(F)F)c2cc(S(=O)(=O)N(CCO)Cc3ccccc3)ccc2[nH]1 [Example 71, 2-Oxo-4-trifluoromethyl-1,2-dihydroquinoline-6-sulfonic acidbenzyl(2-hydroxyethyl)amide] | 1.31 µM
CC(CNS(=O)(=O)c1ccc2[nH]c(=O)cc(C(F)(F)F)c2c1)c1ccccc1 (stereo not drawn) [Example 131, 2-Oxo-4-trifluoromethyl-1,2-dihydroquinoline-6-sulfonic acid(2-phenylpropyl)amide] | 0.35 µM
Cc1ccc(CNS(=O)(=O)c2ccc3[nH]c(=O)cc(C(F)(F)F)c3c2)c(F)c1F [Example 145, 2-Oxo-4-trifluoromethyl-1,2-dihydroquinoline-6-sulfonic acid2,3-difluoro-4-methylbenzylamide] | > 10 µM
O=c1cc(C(F)(F)F)c2cc(S(=O)(=O)NCc3cccc(Cl)c3)ccc2[nH]1 [Example 138, 2-Oxo-4-trifluoromethyl-1,2-dihydroquinoline-6-sulfonic acid3-chlorobenzylamide] | > 10 µM
Cn1c(=O)cc(C(F)(F)F)c2cc(S(=O)(=O)Nc3ccc4c(c3)CCC4)ccc21 [Example 22, 1-Methyl-2-oxo-4-trifluoromethyl-1,2-dihydroquinoline-6-sulfonicacid indan-5-ylamide] | 4.47 µM

From patent publication US7009052B2, “Sulfonamide derivatives” (Warner Lambert Company LLC, priority 2003, dated 2006)
